Experiments:
Format in all cases: in vivo
[1] = tested on: common ragweed (Ambrosia artemisiifolia L., AMBEL); assay: Post-emerge greenhouse herbicide test, phytotoxicity rating; details: 14 days after application, scale 0-100
In short: (§1)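 Plants at the 2-3 leaf stage, sown 8-21 days earlier, were track-sprayed post-emergence with compound in acetone plus 0.25% v/v non-ionic surfactant at 63-1000 g ai/ha (187 l/ha). Damage was rated at 14 days on a 0-100 scale (0 none, 100 all plants dead), for both crop injury and weed control.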

[2] = tested on: Johnsongrass (Sorghum halepense, SORHA); assay: Pre-emerge greenhouse herbicide test, phytotoxicity rating; details: 14 days after application, rating scale 0-100
In short: (§2)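 Seeds sown in sandy loam one day before track-sprayer application of acetone solutions at 125–1000 g ai/ha (187 l/ha), then surface-watered to incorporate and bottom-watered. Injury scored visually at 14 days on a 0–100 scale (0 no damage, 100 complete death).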

[3] = tested on: green foxtail (Setaria viridis, SETVI); assay: as above; details: 14 days after application, rating scale 0-100
In short: as §2

[4] = tested on: velvetleaf (Abutilon theophrasti, ABUTH); assay: as above; details: 14 days after application, rating scale 0-100
In short: as §2

[5] = tested on: large crabgrass (Digitaria sanguinalis, DIGSA); assay: as above; details: 14 days after application, rating scale 0-100
In short: as §2

[6] = tested on: redroot pigweed (Amaranthus retroflexus, AMARE); assay: as above; details: 14 days after application, rating scale 0-100
In short: as §2

[7] = tested on: common ragweed (Ambrosia artemisiifolia L., AMBEL); assay: as above; details: 14 days after application, rating scale 0-100
In short: as §2

[8] = tested on: barnyardgrass (Echinochloa crusgalli, ECHCG); assay: as above; details: 14 days after application, rating scale 0-100
In short: as §2

[9] = tested on: ivyleaf morningglory (Ipomoea hederacea, IPOHE); assay: as above; details: 14 days after application, rating scale 0-100
In short: as §2

[10] = tested on: sicklepod (Cassia obtusifolia, CASOB); assay: as above; details: 14 days after application, rating scale 0-100
In short: as §2

[11] = tested on: lambsquarters (Chenopodium album, CHEAL); assay: as above; details: 14 days after application, rating scale 0-100
In short: as §2

[12] = tested on: field corn (Zea mays L., var. Dekalb 535, CORN); assay: Post-emerge greenhouse test, crop damage rating; details: 14 days after application, scale 0-100
In short: as §1

[13] = tested on: upland rice (Oryza sp., var.Tebonnet, RICE); assay: Post-emerge greenhouse test, crop damage rating; details: 14 days after application, scale 0-100
In short: as §1

[14] = tested on: field corn (Zea mays L., var. Dekalb 535, CORN); assay: Pre-emerge greenhouse test, crop damage rating; details: 14 days after application, rating scale 0-100
In short: as §2

[15] = tested on: upland rice (Oryza sp., var.Tebonnet, RICE); assay: Pre-emerge greenhouse test, crop damage rating; details: 14 days after application, rating scale 0-100
In short: as §2

[16] = tested on: Johnsongrass (Sorghum halepense, SORHA); assay: Post-emerge greenhouse herbicide test, phytotoxicity rating; details: 14 days after application, scale 0-100
In short: as §1

[17] = tested on: green foxtail (Setaria viridis, SETVI); assay: as above; details: 14 days after application, scale 0-100
In short: as §1

[18] = tested on: velvetleaf (Abutilon theophrasti, ABUTH); assay: as above; details: 14 days after application, scale 0-100
In short: as §1

[19] = tested on: large crabgrass (Digitaria sanguinalis, DIGSA); assay: as above; details: 14 days after application, scale 0-100
In short: as §1

[20] = tested on: redroot pigweed (Amaranthus retroflexus, AMARE); assay: as above; details: 14 days after application, scale 0-100
In short: as §1

[21] = tested on: barnyardgrass (Echinochloa crusgalli, ECHCG); assay: as above; details: 14 days after application, scale 0-100
In short: as §1

[22] = tested on: ivyleaf morningglory (Ipomoea hederacea, IPOHE); assay: as above; details: 14 days after application, scale 0-100
In short: as §1

[23] = tested on: sicklepod (Cassia obtusifolia, CASOB); assay: as above; details: 14 days after application, scale 0-100
In short: as §1

[24] = tested on: lambsquarters (Chenopodium album, CHEAL); assay: as above; details: 14 days after application, scale 0-100
In short: as §1

[25] = tested on: soybean (Glycine max L., var. Pella 86, SOY); assay: Post-emerge greenhouse test, crop damage rating; set-up: key to crop damage rating SOY: 0-100 scale: 0 = no damage, 100 = complete death of all plants; details: 14 days after application, scale 0-100
In short: as §1

[26] = tested on: soybean (Glycine max L., var. Pella 86, SOY); assay: Pre-emerge greenhouse test, crop damage rating; set-up: key to SOY crop damage rating: 0 = no damage, 100 = complete death of all plants; details: 14 days after application, rating scale 0-100
In short: as §2

O=c1n(-c2cc(Oc3nc(Cl)ccc3C(F)(F)F)c(Cl)cc2F)c(=S)n2n1CCCC2 [Compound 8-27]
phytotoxicity rating AMBEL ([1]; rate 63 g ai/ha): 60 | phytotoxicity rating AMBEL ([1]; rate 500 g ai/ha): 85 | SORHA phytotoxicity rating ([2]; Rate 125 g al/ha): 0 | SORHA phytotoxicity rating ([2]; Rate 500 g al/ha): 30 | SETVI phytotoxicity rating ([3]; Rate 125 g al/ha): 60 | SETVI phytotoxicity rating ([3]; Rate 500 g al/ha): 100 | ABUTH phytotoxicity rating ([4]; Rate 125 g al/ha): 50 | ABUTH phytotoxicity rating ([4]; Rate 500 g al/ha): 100 | DIGSA phytotoxicity rating ([5]; Rate 125 g al/ha): 10 | DIGSA phytotoxicity rating ([5]; Rate 500 g al/ha): 50 | AMARE phytotoxicity rating ([6]; Rate 125 g al/ha): 100 | AMARE phytotoxicity rating ([6]; Rate 500 g al/ha): 100 | AMBEL phytotoxicity rating ([7]; Rate 125 g al/ha): 0 | AMBEL phytotoxicity rating ([7]; Rate 500 g al/ha): 0 | ECHCG phytotoxicity rating ([8]; Rate 125 g al/ha): 0 | ECHCG phytotoxicity rating ([8]; Rate 500 g al/ha): 0 | IPOHE phytotoxicity rating ([9]; Rate 125 g al/ha): 0 | IPOHE phytotoxicity rating ([9]; Rate 500 g al/ha): 30 | CASOB phytotoxicity rating ([10]; Rate 125 g al/ha): 0 | CASOB phytotoxicity rating ([10]; Rate 500 g al/ha): 80 | CHEAL phytotoxicity rating ([11]; Rate 125 g al/ha): 80 | CHEAL phytotoxicity rating ([11]; Rate 500 g al/ha): 100 | crop damage rating CORN ([12]; rate 63 g ai/ha): 5 | crop damage rating CORN ([12]; rate 500 g ai/ha): 10 | crop damage rating RICE ([13]; rate 63 g ai/ha): 0 | crop damage rating RICE ([13]; rate 500 g ai/ha): 5 | CORN crop damage rating ([14]; Rate 125 g al/ha): 0 | CORN crop damage rating ([14]; Rate 500 g al/ha): 0 | RICE crop damage rating ([15]; Rate 125 g al/ha): 0 | RICE crop damage rating ([15]; Rate 500 g al/ha): 10 | phytotoxicity rating SORHA ([16]; rate 63 g ai/ha): 30 | phytotoxicity rating SORHA ([16]; rate 500 g ai/ha): 20 | phytotoxicity rating SETVI ([17]; rate 63 g ai/ha): 50 | phytotoxicity rating SETVI ([17]; rate 500 g ai/ha): 50 | phytotoxicity rating ABUTH ([18]; rate 63 g ai/ha): 80 | phytotoxicity rating ABUTH ([18]; rate 500 g ai/ha): 100 | phytotoxicity rating DIGSA ([19]; rate 63 g ai/ha): 10 | phytotoxicity rating DIGSA ([19]; rate 500 g ai/ha): 20 | phytotoxicity rating AMARE ([20]; rate 63 g ai/ha): 90 | phytotoxicity rating AMARE ([20]; rate 500 g ai/ha): 100 | phytotoxicity rating ECHCG ([21]; rate 63 g ai/ha): 0 | phytotoxicity rating ECHCG ([21]; rate 500 g ai/ha): 10 | phytotoxicity rating IPOHE ([22]; rate 63 g ai/ha): 50 | phytotoxicity rating IPOHE ([22]; rate 500 g ai/ha): 80 | phytotoxicity rating CASOB ([23]; rate 63 g ai/ha): 30 | phytotoxicity rating CASOB ([23]; rate 500 g ai/ha): 100 | phytotoxicity rating CHEAL ([24]; rate 63 g ai/ha): 90 | phytotoxicity rating CHEAL ([24]; rate 500 g ai/ha): 100 | crop damage rating SOY ([25]; rate 63 g ai/ha): 70 | crop damage rating SOY ([25]; rate 500 g ai/ha): 80 | SOY crop damage rating ([26]; Rate 125 g al/ha): 0 | SOY crop damage rating ([26]; Rate 500 g al/ha): 0

From patent US6479435B1, “Diaryl ethers and processes for their preparation and herbicidal and desiccant compositions containing them” (ISK Americas Incorporated, priority 1997, dated 2002)
